Assays:
[1] = target: T1, Serine/threonine-protein kinase TBK1 (Homo sapiens) (UniProt Q9UHD2); assay: Inhibition of TBK1 Lys2 labeling site in human Huh-7 cells at 1 uM by KiNativ Profiling analysis relative to control; type: cell-based
T1 sequence (whole entry): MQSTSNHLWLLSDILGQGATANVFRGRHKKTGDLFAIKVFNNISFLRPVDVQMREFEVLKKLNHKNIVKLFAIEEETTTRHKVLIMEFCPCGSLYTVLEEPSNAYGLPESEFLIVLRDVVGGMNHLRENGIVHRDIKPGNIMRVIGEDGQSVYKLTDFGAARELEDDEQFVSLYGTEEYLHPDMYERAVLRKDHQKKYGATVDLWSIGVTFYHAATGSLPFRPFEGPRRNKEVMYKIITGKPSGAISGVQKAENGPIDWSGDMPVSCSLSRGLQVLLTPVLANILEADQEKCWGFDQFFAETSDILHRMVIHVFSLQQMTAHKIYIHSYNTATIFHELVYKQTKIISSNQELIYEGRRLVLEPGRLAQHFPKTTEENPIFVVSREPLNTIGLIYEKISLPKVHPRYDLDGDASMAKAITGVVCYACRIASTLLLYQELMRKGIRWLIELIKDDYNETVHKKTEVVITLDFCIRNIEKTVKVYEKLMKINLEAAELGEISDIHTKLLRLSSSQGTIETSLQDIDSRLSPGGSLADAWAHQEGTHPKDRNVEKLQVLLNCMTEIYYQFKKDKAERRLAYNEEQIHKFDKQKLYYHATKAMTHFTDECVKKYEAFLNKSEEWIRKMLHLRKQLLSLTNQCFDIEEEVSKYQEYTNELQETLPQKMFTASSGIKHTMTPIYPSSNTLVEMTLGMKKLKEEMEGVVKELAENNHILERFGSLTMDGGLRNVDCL

[2] = target: Mitogen-activated protein kinase kinase kinase kinase 4 (Homo sapiens, UniProt O95819); assay: Inhibition of ZC1/HGK K1 labeling site harbouring TGQLAAIKVMDVTEDEEEEIKLEINMLKK in human Huh-7 cells at 1 uM by KiNativ Profiling analysis relative to control; type: cell-based
Mitogen-activated protein kinase kinase kinase kinase 4, sequence (O95819 2-1239 limits assumed): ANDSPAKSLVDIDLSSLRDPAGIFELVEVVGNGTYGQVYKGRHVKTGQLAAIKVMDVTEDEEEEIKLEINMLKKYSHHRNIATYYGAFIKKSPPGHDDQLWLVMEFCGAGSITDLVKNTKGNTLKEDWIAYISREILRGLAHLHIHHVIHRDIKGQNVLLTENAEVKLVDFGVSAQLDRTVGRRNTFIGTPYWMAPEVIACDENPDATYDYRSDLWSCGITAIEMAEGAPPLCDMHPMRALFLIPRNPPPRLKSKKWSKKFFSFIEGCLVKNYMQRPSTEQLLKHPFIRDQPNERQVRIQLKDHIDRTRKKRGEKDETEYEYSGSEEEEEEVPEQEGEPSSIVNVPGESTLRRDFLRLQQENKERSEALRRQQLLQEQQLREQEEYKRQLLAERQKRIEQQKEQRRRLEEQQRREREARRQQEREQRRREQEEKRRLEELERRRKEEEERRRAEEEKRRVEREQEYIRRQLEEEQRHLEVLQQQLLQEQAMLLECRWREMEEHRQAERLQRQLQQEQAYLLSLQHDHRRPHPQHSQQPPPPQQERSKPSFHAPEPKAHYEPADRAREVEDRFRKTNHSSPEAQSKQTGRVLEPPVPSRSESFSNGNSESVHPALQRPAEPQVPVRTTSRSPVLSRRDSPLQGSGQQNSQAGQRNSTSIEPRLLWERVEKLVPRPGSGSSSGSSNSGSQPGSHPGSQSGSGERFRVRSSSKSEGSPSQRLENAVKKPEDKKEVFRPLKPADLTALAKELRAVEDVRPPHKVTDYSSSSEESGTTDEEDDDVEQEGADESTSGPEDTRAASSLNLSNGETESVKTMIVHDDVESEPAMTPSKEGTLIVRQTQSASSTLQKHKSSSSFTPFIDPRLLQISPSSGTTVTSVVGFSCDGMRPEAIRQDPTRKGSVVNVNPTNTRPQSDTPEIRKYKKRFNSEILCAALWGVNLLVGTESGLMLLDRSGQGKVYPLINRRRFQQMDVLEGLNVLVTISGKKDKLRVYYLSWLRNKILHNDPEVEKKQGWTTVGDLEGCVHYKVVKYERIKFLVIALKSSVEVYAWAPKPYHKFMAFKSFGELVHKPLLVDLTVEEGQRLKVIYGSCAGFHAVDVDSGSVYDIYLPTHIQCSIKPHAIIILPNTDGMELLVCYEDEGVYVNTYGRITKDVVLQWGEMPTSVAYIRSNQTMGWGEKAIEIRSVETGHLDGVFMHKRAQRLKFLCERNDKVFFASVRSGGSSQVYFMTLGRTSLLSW

[3] = target: Serine/threonine-protein kinase 26 (Homo sapiens) (UniProt Q9P289); assay: Inhibition of MST4 K1 labeling site in human Huh-7 cells at 1 uM by KiNativ Profiling analysis relative to control; type: cell-based
Serine/threonine-protein kinase 26 (Homo sapiens), sequence (Q9P289 2-416 limits assumed): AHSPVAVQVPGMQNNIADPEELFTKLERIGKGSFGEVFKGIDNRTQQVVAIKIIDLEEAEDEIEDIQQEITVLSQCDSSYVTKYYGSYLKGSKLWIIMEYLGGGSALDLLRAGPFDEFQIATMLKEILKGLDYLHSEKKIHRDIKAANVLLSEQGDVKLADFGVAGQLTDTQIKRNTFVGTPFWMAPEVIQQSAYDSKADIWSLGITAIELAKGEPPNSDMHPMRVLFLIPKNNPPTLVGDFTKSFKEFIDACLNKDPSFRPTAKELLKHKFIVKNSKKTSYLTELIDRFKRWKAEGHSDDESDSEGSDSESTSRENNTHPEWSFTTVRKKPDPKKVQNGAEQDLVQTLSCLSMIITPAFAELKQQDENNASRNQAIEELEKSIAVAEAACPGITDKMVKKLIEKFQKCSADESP

[4] = target: T2, Serine/threonine-protein kinase D3 (Homo sapiens) (UniProt O94806); assay: Inhibition of PKD3 K2 labeling site in human Huh-7 cells at 10 uM by KiNativ Profiling analysis relative to control; type: cell-based
T2 sequence (whole entry): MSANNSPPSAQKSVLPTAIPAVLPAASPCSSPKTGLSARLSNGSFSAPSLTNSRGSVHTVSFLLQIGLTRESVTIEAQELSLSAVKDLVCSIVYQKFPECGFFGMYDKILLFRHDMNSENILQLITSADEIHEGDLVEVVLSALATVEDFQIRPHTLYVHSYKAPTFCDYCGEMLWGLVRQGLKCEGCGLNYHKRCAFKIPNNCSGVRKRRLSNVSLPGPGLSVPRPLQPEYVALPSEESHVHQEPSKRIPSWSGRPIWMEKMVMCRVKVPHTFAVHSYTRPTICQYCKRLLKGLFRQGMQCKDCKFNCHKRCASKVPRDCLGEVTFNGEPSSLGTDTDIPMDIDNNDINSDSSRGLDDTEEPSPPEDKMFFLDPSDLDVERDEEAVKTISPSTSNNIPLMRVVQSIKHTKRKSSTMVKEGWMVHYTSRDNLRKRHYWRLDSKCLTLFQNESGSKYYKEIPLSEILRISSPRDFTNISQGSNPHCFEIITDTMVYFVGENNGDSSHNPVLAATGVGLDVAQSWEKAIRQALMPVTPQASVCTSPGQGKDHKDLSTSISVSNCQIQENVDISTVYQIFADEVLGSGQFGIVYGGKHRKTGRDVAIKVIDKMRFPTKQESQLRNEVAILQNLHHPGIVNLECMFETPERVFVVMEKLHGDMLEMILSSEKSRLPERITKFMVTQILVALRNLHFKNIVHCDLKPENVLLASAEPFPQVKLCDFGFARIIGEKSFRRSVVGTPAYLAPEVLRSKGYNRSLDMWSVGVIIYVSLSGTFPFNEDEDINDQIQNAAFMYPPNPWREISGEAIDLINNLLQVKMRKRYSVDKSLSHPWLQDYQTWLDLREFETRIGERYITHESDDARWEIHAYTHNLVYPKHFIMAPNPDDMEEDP

[5] = target: T3, Serine/threonine-protein kinase D2 (Homo sapiens) (UniProt Q9BZL6); assay: Inhibition of PKD2 Lys1 labeling site in human A-375 cells at 5 uM by KiNativ Profiling analysis relative to control; type: cell-based
T3 sequence (whole entry): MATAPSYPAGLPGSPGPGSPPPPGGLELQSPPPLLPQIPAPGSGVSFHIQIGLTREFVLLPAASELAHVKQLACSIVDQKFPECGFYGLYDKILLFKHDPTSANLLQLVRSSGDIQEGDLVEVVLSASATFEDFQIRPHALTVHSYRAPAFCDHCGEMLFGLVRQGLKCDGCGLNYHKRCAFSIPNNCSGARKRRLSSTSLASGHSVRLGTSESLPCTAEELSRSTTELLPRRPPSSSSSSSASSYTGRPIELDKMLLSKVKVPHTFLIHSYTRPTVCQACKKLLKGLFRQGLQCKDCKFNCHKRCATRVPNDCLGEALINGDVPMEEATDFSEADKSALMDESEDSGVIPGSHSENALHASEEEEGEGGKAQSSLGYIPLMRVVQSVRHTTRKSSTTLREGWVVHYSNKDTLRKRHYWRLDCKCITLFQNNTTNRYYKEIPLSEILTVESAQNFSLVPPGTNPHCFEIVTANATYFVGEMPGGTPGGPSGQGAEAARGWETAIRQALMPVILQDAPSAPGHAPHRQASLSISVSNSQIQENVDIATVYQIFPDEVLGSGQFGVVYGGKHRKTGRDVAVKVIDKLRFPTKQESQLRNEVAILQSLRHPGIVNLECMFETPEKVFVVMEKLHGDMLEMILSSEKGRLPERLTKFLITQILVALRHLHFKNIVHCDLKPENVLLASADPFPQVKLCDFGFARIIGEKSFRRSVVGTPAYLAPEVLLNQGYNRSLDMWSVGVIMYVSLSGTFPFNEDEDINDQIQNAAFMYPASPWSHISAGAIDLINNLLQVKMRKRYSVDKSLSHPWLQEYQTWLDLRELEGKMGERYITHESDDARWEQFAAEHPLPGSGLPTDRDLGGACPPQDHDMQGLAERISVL

[6] = target: 5'-AMP-activated protein kinase catalytic subunit alpha-1 (Homo sapiens) (UniProt Q13131); assay: Inhibition of AMPKa1 Lys1 labeling site in human A-375 cells at 0.5 uM by KiNativ Profiling analysis relative to control; type: cell-based
5'-AMP-activated protein kinase catalytic subunit alpha-1 (Homo sapiens), sequence (Q13131 whole entry, looked up): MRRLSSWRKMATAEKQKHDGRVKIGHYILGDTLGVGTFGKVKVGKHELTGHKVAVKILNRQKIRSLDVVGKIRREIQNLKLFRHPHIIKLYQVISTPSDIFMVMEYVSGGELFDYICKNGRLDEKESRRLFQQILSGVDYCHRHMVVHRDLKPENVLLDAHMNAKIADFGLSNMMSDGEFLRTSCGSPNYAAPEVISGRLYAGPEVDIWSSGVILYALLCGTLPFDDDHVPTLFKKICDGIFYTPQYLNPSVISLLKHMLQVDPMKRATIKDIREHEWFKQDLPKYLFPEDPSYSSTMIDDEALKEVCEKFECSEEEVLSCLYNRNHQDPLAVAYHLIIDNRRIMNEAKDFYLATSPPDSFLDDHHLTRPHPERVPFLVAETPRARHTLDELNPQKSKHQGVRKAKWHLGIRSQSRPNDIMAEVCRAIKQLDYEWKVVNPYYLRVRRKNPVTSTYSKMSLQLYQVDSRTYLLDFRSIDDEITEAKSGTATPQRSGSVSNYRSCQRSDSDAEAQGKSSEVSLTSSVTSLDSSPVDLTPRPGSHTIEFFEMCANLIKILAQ

[7] = target: STE20/SPS1-related proline-alanine-rich protein kinase (Homo sapiens) (UniProt Q9UEW8); assay: Inhibition of STK39 (unknown origin) at 1 uM by Ambit Kinomescan binding assay relative to control

CNc1cc(Oc2cc(C(=O)Nc3cc(N4CCN(C)CC4)cc(C(F)(F)F)c3)ccc2C)ncn1
inhibition [1]: 17.7%

CCN1CCN(Cc2ccc(NC(=O)c3ccc(C)c(Oc4ccnc5[nH]ccc45)c3)cc2C(F)(F)F)CC1
inhibition [2]: 19.2%
inhibition [3]: 5.3%
inhibition [4]: 17.2%

CCN1CCN(Cc2ccc(NC(=O)c3ccc(C)c(/C=C/c4cnc5[nH]ccc5c4OC)c3)cc2C(F)(F)F)CC1
inhibition [5]: 2.1%
inhibition [6]: 20.3%
inhibition [7]: 70%
